The target of the assay is Tyrosine-protein kinase Lck (Homo sapiens, UniProt P06239). The assay can be described thus: Binding affinity towards p56 Lck tyrosine kinase SH2 domain was determined by biological assay.

Non-standard residues stand in square brackets, D forms with d. Residues, ends and D or L forms follow the SMILES beside them. Phe(4-CH2COOH) = N[C@@H](Cc1ccc(CC(=O)O)cc1)C(=O)O

Tyrosine-protein kinase Lck, sequence (P06239 whole entry, the tested form may be a part): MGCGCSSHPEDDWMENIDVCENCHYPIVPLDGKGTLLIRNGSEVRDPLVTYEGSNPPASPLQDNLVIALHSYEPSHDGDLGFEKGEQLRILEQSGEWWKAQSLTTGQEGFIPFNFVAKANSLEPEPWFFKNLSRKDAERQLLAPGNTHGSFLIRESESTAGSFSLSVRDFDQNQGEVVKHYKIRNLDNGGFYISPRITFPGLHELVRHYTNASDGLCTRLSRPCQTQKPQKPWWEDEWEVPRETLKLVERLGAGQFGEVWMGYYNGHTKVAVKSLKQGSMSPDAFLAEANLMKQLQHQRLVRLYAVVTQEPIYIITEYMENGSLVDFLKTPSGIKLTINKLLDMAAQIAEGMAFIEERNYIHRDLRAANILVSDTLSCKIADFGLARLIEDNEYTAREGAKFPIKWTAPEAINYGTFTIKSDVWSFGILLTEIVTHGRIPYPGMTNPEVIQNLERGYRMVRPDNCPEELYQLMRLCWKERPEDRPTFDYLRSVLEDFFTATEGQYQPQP

`COc1ccc(CNC(=O)[C@H](CCC(=O)O)NC(=O)[C@H](Cc2ccc(NC(=O)C(=O)O)cc2)NC(=O)Cc2ccccc2)cc1`: binding was characterised by a dissociation constant (Kd) of 17 µM.

Consider `COc1ccc(CNC(=O)[C@H](CCC(=O)O)NC(=O)[C@H](Cc2ccc(OP(=O)(O)O)cc2)NC(=O)Cc2cccc3ccccc23)cc1`, for which the Kd (commonly the constant that tells how readily two partners part at equilibrium) turned out to be 0.04 µM.

In turn, `COc1ccc(CNC(=O)[C@H](CCC(=O)O)NC(=O)[C@H](Cc2ccc(CS(=O)(=O)O)cc2)NC(C)=O)cc1` came in with an equilibrium dissociation constant (Kd) of 25 µM.

For `CC[C@H](C)[C@H](NC(=O)[C@H](CCC(=O)O)NC(=O)[C@H](CCC(=O)O)NC(=O)[C@H](Cc1ccc(CC(=O)O)cc1)NC(C)=O)C(=O)O` (Ac-[Phe(4-CH2COOH)]EEI-OH), the Kd amounted to 42 µM.

With `COc1ccc(CNC(=O)[C@H](CCC(=O)O)NC(=O)[C@H](Cc2ccc(NC(=O)C(=O)O)cc2)NC(=O)CCc2ccccc2)cc1`, binding was characterised by a dissociation constant (Kd) of 13 µM. This Kd is about 3.2-fold lower than that of the molecule before.

Turning to `COc1ccc(CNC(=O)[C@H](CCC(=O)O)NC(=O)[C@H](Cc2ccc(C(=O)C(=O)O)cc2)NC(C)=O)cc1`, binding was put at a Kd of 65 µM.

The molecule `COc1ccc(CNC(=O)[C@H](CCC(=O)O)NC(=O)[C@H](Cc2ccc(CC(=O)O)cc2)NC(C)=O)cc1` yielded a dissociation constant Kd of 50 µM.

As to `COc1ccc(CNC(=O)[C@H](CCC(=O)O)NC(=O)[C@H](Cc2ccc(CCC(=O)O)cc2)NC(C)=O)cc1`, the dissociation constant (Kd) worked out at 184 µM.

In the case of `COc1ccc(CNC(=O)[C@H](CCC(=O)O)NC(=O)[C@H](Cc2ccc(NC(=O)C(=O)O)cc2)NC(=O)c2ccccc2)cc1`, the affinity, expressed as Kd, was 32 µM.

Molecule `COc1ccc(CNC(=O)[C@H](CCC(=O)O)NC(=O)[C@H](Cc2ccc(NC(=O)C(=O)O)cc2)NC(=O)Cc2ccc3ccccc3c2)cc1` displayed a Kd of 3 µM.

In turn, `COc1ccc(CNC(=O)[C@H](CCC(=O)O)NC(=O)[C@H](Cc2ccc(NC(=O)C(=O)O)cc2)NC(C)=O)cc1` came in with a dissociation constant Kd of 42 µM.

Regarding `COc1ccc(CNC(=O)[C@H](CCC(=O)O)NC(=O)[C@H](Cc2ccc(C(F)(F)C(=O)O)cc2)NC(C)=O)cc1`, the Kd came out at 166 µM. Against the preceding molecule, the Kd is about 4-fold higher.

With `COc1ccc(CNC(=O)[C@H](CCC(=O)O)NC(=O)[C@H](Cc2ccc(C(O)C(=O)O)cc2)NC(C)=O)cc1` (stereo partly specified), binding was characterised by a dissociation constant (Kd) of 15 µM.

`COc1ccc(CNC(=O)[C@H](CCC(=O)O)NC(=O)[C@H](Cc2ccc(CS(=O)(=O)O)cc2)NC(=O)Cc2cccc3ccccc23)cc1`: binding was put at a Kd of 4 µM.

For `COc1ccc(CNC(=O)[C@H](CCC(=O)O)NC(=O)[C@H](Cc2ccc(CC(=O)O)cc2)NC(=O)Cc2cccc3ccccc23)cc1`, binding was characterised by a dissociation constant (Kd) of 5 µM.

In the case of `COc1ccc(CNC(=O)[C@H](CCC(=O)O)NC(=O)[C@H](Cc2ccc(C(O)C(=O)O)cc2)NC(=O)Cc2cccc3ccccc23)cc1` (stereo partly specified), the Kd amounted to 2 µM.
